Assay results reported in patent US10961238B2, “Modulators of hedgehog (Hh) signaling pathway” (E-THERAPEUTICS PLC, priority 2016, dated 2021).
pIC50: −log10 of the molar value. Read-outs that look alike come from different tables or passages of the source.

What was measured:
SMO = target: T1, SMO (Homo sapiens, UniProt Q99835); test: Smoothened (SMO) binding fluorescence polarisation assay (BODIPY-cyclopamine competition); conditions: SMO binding FP assay versus C3H10T1/2 cellular assay
T1 construct: expressed in transfected cells; host or cells: HEK293
Procedure: Standard Protocol for Smoothened (SMO) Binding Fluorescence Polarisation Assay.
The assay measures the ability of the test compounds to compete with a fluorescently-labelled version of the known ligand, cyclopamine, for binding to SMO. The fluorescent tag used is BODIPY (boron dipyrromethene).
An aliquot of a membrane preparation from a SMO-over-expressing HEK293 cell line is diluted to protein concentration of 0.117 mg/ml in assay buffer (25 mM HEPES, 2 mM EDTA, 0.05% γ-globulin, 0.01% pluronic acid pH7.4, plus protease Inhibitor cocktail). 8.5 μl of the membrane suspension is added to each well of a black, low volume 384 well microtitre plate.
Test compounds are added in a seven point dilution range to the wells containing the membrane preparation. The final DMSO solvent concentration in the wells is maintained at 0.3%. 6.5 μl of a 6.9 nM BODIPY-cyclopamine solution is added to each of the wells (final assay concentration 3 nM).
The plate is sealed and stored in the dark at room temperature for 24 hours prior to measurement of the fluorescence polarisation signal on a Perkin Elmer Envision multi-label reader.
Table 4 below details the ratio of SMO binding compared to the potency in the C3H10T1/2 cellular assay. The small ratio between SMO binding and potency for vismodegib is considered to be reflective of the fact vismodegib acts mainly through inhibition of the SMO protein. The larger ratios for the compound of the invention are considered to be reflective of alternate actions outside of direct SMO inhibition.

C3H10T1/2 cells = test: C3H assay: differentiation of C3H10T1/2 cells by mSHH, measurement of alkaline phosphatase; assay type: cell-based, mouse; conditions: Mus musculus, C3H 10T1/2
[1] = C3H10T1/2 cells stimulated with mSHH for 72 hours, alkaline phosphatase activity, read-out: IC50 Ranges

T1 sequence (Q99835 28-787): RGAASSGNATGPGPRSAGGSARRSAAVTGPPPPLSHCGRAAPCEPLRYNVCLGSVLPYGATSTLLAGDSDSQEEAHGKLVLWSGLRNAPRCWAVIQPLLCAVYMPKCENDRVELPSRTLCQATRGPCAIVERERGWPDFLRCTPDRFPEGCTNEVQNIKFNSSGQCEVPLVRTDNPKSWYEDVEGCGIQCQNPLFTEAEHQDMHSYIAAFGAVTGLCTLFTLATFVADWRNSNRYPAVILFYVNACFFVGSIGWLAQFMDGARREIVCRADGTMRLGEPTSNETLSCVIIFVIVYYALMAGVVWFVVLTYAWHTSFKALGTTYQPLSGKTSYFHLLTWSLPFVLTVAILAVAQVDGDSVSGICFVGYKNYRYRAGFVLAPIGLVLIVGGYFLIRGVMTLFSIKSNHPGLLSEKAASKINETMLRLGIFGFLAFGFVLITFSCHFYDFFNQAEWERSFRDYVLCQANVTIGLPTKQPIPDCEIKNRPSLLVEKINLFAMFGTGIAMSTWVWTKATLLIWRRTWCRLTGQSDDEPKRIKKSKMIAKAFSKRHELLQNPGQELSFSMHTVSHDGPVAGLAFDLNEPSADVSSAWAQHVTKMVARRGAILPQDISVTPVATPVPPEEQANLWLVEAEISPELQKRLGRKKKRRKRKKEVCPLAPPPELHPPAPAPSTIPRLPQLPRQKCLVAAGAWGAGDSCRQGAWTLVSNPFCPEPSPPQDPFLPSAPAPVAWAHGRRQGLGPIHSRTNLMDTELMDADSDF

Structure (SMILES)	Ratio of potency in SMO binding assay to potency in C3H10T1/2 cellular assay (SMO)	pIC50 (C3H10T1/2 cells; [1])	pIC50 (C3H10T1/2 cells; reference compounds run in the C3H assay, read-out: mean IC50)
COC(=O)c1cnc2[nH]cc(C3CCN(S(=O)(=O)C4CCN(C(=O)OC(C)(C)C)CC4)CC3)c2c1 [Compound 16, methyl 3-[1-[1-[(2-methylpropan-2-yl)oxycarbonyl]piperidin-4-yl]sulfonylpiper-idin-4-yl]-1H-pyrrolo[2,3-b]pyridine-5-carboxylate]	>78	6.00 to 7.00	–
CC1(C)COCC(C)(C)N1C(=O)N1CC(S(=O)(=O)N2CCC(c3cnc4occc4c3)CC2)C1 [Compound 34, [3-(4-furo[2,3-b]pyridin-5-ylpiperidin-1-yl)sulfonylaze-tidin-1-yl]-(3,3,5,5-tetramethylmor-pholin-4-yl)methanone]	21	7.00 to 8.00	–
O=C(OCC1CCCO1)N1CC(S(=O)(=O)N2CCC(c3c[nH]c4ncccc34)CC2)C1 (centres unmarked) [Compound 67, (oxolan-2-yl)methyl 3-[4-(1H-pyrrolo [2,3-b]pyridin-3-yl)piperidin-1-yl]sulfonylaze-tidine-1-carboxylate]	45	7.00 to 8.00	–
CC(C)OC(=O)N1CC(S(=O)(=O)N2CCC(c3c[nH]c4ncccc34)CC2)C1 [Compound 97, propan-2-yl 3-[4-(1H-pyrrolo[2,3-b]pyridin-3-yl)piperidin-1-yl]sulfonylaze-tidine-1-carboxylate]	22	6.00 to 7.00	–
CN(C)c1ccc(C2CCN(S(=O)(=O)C3CCN(C(=O)OC(C)(C)C)CC3)CC2)cc1 [Compound 112]	42	6.00 to 7.00	–
COc1cnc2[nH]cc(C3CCN(S(=O)(=O)C4CCN(C(=O)OC(C)(C)C)CC4)CC3)c2c1 [Compound 115, tert-butyl 4-[4-(5-methoxy-1H-pyrrolo[2,3-b]pyridin-3-yl)piperidin-1-yl]sulfonylpiper-idine-1-carboxylate]	20	6.00 to 7.00	–
Cn1cc(-c2cnc3[nH]cc(C4CCN(S(=O)(=O)C5CN(C(=O)OC(C)(C)C)C5)CC4)c3c2)cn1 [Compound 122, tert-butyl 3-[4-[5-(1-methylpyrazol-4-yl)-1H-pyrrolo [2,3-b]pyridin-3-yl]piperidin-1-yl]sulfonylaze-tidine-1-carboxylate]	>55	6.00 to 7.00	–
CC(C)(C)OC(=O)N1CC(S(=O)(=O)N2CCC(c3coc4cccnc34)CC2)C1 [Compound 131, tert-Butyl 3-[(4-furo[3,2-b]pyridin-3-yl-1-piperidyl)sulfonyl]azetidine-1-carboxylate]	84	7.00 to 8.00	–
O=C(OC[C@H]1CCCO1)N1CC(S(=O)(=O)N2CCC(c3c[nH]c4ncccc34)CC2)C1 [Compound 162, [(2R)-oxolan-2-yl]methyl 3-[4-(1H-pyrrolo[2,3-b]pyridin-3-yl)piperidin-1-yl]sulfonylaze-tidine-1-carboxylate]	20	7.00 to 8.00	–
CC(C)(C)OC(=O)N1CC(S(=O)(=O)N2CC=C(c3c[nH]c4ncccc34)CC2)C1 [Compound 228, tert-butyl 3-[[4-(1H-pyrrolo[2,3-b]pyridin-3-yl)-3,6-dihydro-2H-pyridin-1-yl]sulfonyl] azetidine-1-carboxylate]	20	6.00 to 7.00	–
Cc1ccc(S(=O)(=O)n2ccc3c(C4=CCN(S(=O)(=O)C5CCN(C(=O)OC(C)(C)C)CC5)CC4)ncnc32)cc1 [Compound 239, tert-butyl 4-[[4-[7-(4-methylphenyl)sulfonylpyrrolo[2,3-d]pyrimidin-4-yl]-3,6-dihydro-2H-pyridin-1-yl]sulfonyl] piperidine-1-carboxylate]	>37	6.00 to 7.00	–
CC1(C)COCN1C(=O)N1CC(S(=O)(=O)N2CCC(c3c[nH]c4ncccc34)CC2)C1 [Compound 256, (4,4-dimethyl-1,3-oxazolidin-3-yl)-[3-[4-(1H-pyrrolo[2,3-b]pyridin-3-yl)piperidin-1-yl]sulfonylaze-tidin-1-yl]methanone]	2.7	7.00 to 8.00	–
COC(=O)[C@H]1C[C@H](S(=O)(=O)N2CCC(c3c[nH]c4ncccc34)CC2)C1 [Compound 274, methyl trans-3-[4-(1H-pyrrolo[2,3-b]pyridin-3-yl)piperidin-1-yl]sulfonylcycl obutane-1-carboxylate]	>10	6.00 to 7.00	–
Cc1noc(C)c1CNC(=O)C1CC(S(=O)(=O)N2CCC(c3c[nH]c4ncccc34)CC2)C1 (centres unmarked) [Compound 284, N-[(3,5-dimethyl-1,2-oxazol-4-yl)methyl]-3-[4-(1H-pyrrolo [2,3-b]pyridin-3-yl)piperidin-1-yl]sulfonylcycl obutane-1-carboxamide]	2.3	6.00 to 7.00	–
Cc1noc(C)c1NC(=O)C1CC(S(=O)(=O)N2CCC(c3c[nH]c4ncccc34)CC2)C1 (centres unmarked) [Compound 285, N-(3,5-dimethyl-1,2-oxazol-4-yl)-3-[4-(1H-pyrrolo [2,3-b]pyridin-3-yl)piperidin-1-yl]sulfonylcycl obutane-1-carboxamide]	2.9	7.00 to 8.00	–
O=C(NCCS(=O)(=O)N1CCC(c2c[nH]c3ncccc23)CC1)OC1CCCCC1 [Compound 292, cyclohexyl N-[2-[4-(1H-pyrrolo-[2,3-b]pyridin-3-yl)piperidin-1-yl]sulfonylethyl] carbamate]	4.3	6.00 to 7.00	–
Cc1cc(F)ccc1N(C)C(=O)N1CC(S(=O)(=O)N2CCC(c3coc4cccnc34)CC2)C1 [Compound 399, N-(4-fluoro-2-methyl-phenyl)-3-[(4-furo[3,2-b]pyridin-3-yl-1-piperidyl)sulfonyl]-N-methyl-azetidine-1-carboxamide]	–	6.00 to 7.00	–
Cc1ccc(F)cc1NC(=O)N1CC(S(=O)(=O)N2CCC(c3ccc(Cl)cc3)CC2)C1 [Compound 400, 3-[4-(4-chlorophenyl)piperidin-1-yl]sulfonyl-N-(5-fluoro-2-methylphenyl) azetidine-1-carboxamide]	–	6.00 to 7.00	–
O=C(N1CCOCC1)N1CC(S(=O)(=O)N2CCC(c3ccc(Cl)cc3)CC2)C1 [Compound 402, [3-[4-(4-chlorophenyl)piperidin-1-yl]sulfonylaze-tidin-1-yl]-morpholin-4-ylmethanone]	–	6.00 to 7.00	–
O=C(Nc1c(F)cccc1F)N1CC(S(=O)(=O)N2CCC(c3coc4cccnc34)CC2)C1 [Compound 403, N-(2,6-difluorophenyl)-3-(4-furo[3,2-b]pyridin-3-ylpiperidin-1-yl)sulfonylaze-tidine-1-carboxamide]	–	7.00 to 8.00	–
CC(C)(C(=O)N1CC(S(=O)(=O)N2CCC(c3coc4cccnc34)CC2)C1)C(F)(F)F [Compound 404, 3,3,3-trifluoro-1-[3-(4-furo[3,2-b]pyridin-3-ylpiperidin-1-yl)sulfonylaze-tidin-1-yl]-2,2-dimethylpropan-1-one]	–	7.00 to 8.00	–
C[C@](O)(CC(=O)N1CC(S(=O)(=O)N2CCC(c3c[nH]c4ncccc34)CC2)C1)C(F)(F)F [Compound 405, 4,4,4-trifluoro-3-hydroxy-3-methyl-1-[3-[4-(1H-pyrrolo[2,3-b]pyridin-3-yl)piperidin-1-yl]sulfonylaze-tidin-1-yl]butan-1-one]	–	7.00 to 8.00	–
C[C@](O)(CC(=O)N1CC(S(=O)(=O)N2CCC(c3coc4cccnc34)CC2)C1)C(F)(F)F [Compound 406, 4,4,4-trifluoro-1-[3-(4-furo[3,2-b]pyridin-3-ylpiperidin-1-yl)sulfonylaze-tidin-1-yl]-3-hydroxy-3-methylbutan-1-one]	–	7.00 to 8.00	–
CN1CCC[C@H]1C(=O)N1CC(S(=O)(=O)N2CCC(c3coc4cccnc34)CC2)C1 [Compound 407, [3-(4-furo[3,2-b]pyridin-3-ylpiperidin-1-yl)sulfonylazetidin-1-yl]-[(2S)-methylpyrroli-din-2-yl]methanone]	–	6.00 to 7.00	–
CC(C)CC(=O)N1CC(S(=O)(=O)N2CCC(c3coc4cccnc34)CC2)C1 [Compound 408, 1-[3-(4-furo[3,2-b]pyridin-3-ylpiperidin-1-yl)sulfonylazetidin-1-yl]-3-methylbutan-1-one]	–	6.00 to 7.00	–
Cc1ccccc1C1CCN(S(=O)(=O)C2CN(C(=O)OC(C)(C)C)C2)CC1 [Compound 409, tert-butyl 3-[4-(2-methylphenyl)piperidin-1-yl]sulfonylaze-tidine-1-carboxylate]	–	5.00 to 6.00	–
CC1(C)COCN1C(=O)N1CC(S(=O)(=O)N2CCC(c3ccc(Cl)cc3)CC2)C1 [Compound 411, [3-[4-(4-chlorophenyl)piperidin-1-yl]-sulfonylaze-tidin-1-yl]-(4,4-dimethyl-1,3-oxazolidin-3-yl)-methanone]	–	7.00 to 8.00	–
Cc1c(C(=O)Nc2ccc(N3C[C@@H](C)O[C@@H](C)C3)nc2)cccc1-c1ccc(OC(F)(F)F)cc1 [Sonidegib, reference compound]	–	–	7.96
